What all share (assay): Eurofins kinase selectivity profile against 380 other human recombinant kinases (Table S2)
Common to all, as to format: biochemical

For test [1], the target named is T1, 380 human recombinant protein kinases (Homo sapiens, UniProt Q13882).
T1 construct: purchased Eurofins (Celle Lévescault)
To be noted: BRK(h), read-out: Inhibition rate. The gist of the method: (§1)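 Commercial selectivity screen of the test compound against a panel of 380 human recombinant protein kinases, run by an outside contractor at several compound concentrations to check whether its potency was specific for MK2.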

Test [2] has as its target T2, 380 human recombinant protein kinases (Homo sapiens, UniProt P51813).
T2 construct: purchased Eurofins (Celle Lévescault)
T2 sequence (P51813 1-675): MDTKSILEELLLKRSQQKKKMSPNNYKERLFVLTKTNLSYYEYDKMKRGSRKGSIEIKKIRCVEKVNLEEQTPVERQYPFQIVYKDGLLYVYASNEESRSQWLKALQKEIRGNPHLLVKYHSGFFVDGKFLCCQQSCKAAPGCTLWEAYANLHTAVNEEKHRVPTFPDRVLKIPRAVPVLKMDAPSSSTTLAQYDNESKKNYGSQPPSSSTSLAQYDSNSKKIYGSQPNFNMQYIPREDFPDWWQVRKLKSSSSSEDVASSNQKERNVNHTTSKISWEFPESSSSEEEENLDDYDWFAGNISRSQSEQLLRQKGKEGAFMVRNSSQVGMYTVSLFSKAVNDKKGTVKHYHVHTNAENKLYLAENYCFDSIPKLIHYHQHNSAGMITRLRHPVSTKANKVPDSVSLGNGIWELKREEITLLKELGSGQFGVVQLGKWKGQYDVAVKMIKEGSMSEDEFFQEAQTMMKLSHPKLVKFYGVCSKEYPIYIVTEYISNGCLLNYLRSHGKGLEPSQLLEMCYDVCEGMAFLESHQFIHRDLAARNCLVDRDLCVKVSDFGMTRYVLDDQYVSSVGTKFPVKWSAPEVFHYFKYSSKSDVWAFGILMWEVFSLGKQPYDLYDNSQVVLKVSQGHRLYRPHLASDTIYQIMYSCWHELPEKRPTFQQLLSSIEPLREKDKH
Conditions: Bmx(h), read-out: Inhibition rate. The gist of the method: as §1

Test [3] concerns the target T3, 380 human recombinant protein kinases (Homo sapiens, UniProt P21709).
T3 construct: purchased Eurofins (Celle Lévescault)
T3 sequence (P21709 26-976): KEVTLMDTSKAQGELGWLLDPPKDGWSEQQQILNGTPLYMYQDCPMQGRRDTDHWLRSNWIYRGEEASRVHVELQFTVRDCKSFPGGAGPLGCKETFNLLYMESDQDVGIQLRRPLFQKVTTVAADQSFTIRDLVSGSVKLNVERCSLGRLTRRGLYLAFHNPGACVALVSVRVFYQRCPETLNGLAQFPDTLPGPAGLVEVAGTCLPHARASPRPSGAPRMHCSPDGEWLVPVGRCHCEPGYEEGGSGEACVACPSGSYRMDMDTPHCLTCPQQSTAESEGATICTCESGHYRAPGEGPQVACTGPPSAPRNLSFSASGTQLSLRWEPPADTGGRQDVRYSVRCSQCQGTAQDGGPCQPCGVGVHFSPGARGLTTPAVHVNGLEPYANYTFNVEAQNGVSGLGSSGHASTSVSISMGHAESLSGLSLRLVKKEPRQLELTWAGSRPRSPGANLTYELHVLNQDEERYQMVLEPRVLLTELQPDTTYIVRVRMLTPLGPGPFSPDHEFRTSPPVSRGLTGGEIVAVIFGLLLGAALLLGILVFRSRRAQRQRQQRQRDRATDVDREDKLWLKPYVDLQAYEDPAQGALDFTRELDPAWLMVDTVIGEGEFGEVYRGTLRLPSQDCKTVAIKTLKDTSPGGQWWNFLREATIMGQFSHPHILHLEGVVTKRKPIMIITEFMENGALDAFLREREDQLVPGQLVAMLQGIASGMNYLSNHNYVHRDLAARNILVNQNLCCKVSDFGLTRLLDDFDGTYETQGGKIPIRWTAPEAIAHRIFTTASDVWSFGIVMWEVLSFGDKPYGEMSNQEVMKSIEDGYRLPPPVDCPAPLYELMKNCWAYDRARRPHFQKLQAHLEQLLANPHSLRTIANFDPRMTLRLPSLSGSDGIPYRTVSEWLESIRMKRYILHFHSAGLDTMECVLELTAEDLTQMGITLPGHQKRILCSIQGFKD
To be noted: EphA1(h), read-out: Inhibition rate. The gist of the method:
as §1

Test [4] has as its target T4, 380 human recombinant protein kinases (Homo sapiens, UniProt Q9BYT3).
T4 construct: purchased Eurofins (Celle Lévescault)
To be noted: STK33(h), read-out: Inhibition rate (%). The gist of the method: as §1

Test [5] has as its target T5, 380 human recombinant protein kinases (Homo sapiens, UniProt P37023).
T5 construct: purchased Eurofins (Celle Lévescault)
To be noted: ALK1(h), read-out: Inhibition rate. The gist of the method:
as §1

For test [6], the target named is T6, 380 human recombinant protein kinases (Homo sapiens, UniProt Q16654).
T6 construct: purchased Eurofins (Celle Lévescault)
T6 sequence (Q16654 whole entry): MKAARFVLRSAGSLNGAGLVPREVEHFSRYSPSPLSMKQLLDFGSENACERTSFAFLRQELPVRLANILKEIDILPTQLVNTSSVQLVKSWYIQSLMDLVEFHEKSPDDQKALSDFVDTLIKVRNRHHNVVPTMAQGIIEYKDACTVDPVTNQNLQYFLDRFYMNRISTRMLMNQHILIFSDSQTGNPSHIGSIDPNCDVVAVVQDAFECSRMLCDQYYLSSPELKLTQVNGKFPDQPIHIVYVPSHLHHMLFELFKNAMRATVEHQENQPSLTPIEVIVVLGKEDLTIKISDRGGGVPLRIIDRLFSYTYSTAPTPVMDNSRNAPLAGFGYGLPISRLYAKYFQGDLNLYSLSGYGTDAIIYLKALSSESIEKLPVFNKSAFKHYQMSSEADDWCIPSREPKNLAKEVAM
Conditions: PDHK4(h), read-out: Inhibition rate. The gist of the method: as §1

In test [7] the target is T7, 380 human recombinant protein kinases (Homo sapiens, UniProt Q7KZI7).
T7 construct: purchased Eurofins (Celle Lévescault)
T7 sequence (Q7KZI7 whole entry): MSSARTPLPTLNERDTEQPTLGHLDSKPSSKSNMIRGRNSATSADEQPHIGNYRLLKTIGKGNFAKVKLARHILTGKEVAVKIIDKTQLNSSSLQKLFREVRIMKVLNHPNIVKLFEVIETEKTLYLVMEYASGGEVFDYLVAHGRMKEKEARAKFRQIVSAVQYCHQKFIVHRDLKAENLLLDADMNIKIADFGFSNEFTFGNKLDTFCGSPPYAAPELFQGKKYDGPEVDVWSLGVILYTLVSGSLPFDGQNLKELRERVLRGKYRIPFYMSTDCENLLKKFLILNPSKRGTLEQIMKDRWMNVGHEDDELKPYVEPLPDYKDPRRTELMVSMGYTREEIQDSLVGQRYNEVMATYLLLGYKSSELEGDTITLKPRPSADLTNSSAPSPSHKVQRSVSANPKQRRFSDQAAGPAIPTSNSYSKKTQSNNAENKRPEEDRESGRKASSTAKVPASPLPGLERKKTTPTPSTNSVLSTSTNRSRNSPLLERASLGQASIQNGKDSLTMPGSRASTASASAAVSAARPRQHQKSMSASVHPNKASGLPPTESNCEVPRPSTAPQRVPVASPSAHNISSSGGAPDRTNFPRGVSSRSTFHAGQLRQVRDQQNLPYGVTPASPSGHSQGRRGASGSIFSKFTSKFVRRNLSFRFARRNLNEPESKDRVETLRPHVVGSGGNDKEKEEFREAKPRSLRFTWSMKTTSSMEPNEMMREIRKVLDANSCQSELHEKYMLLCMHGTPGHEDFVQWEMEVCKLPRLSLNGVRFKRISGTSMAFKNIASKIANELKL
To be noted: PAR-1Bα(h), read-out: Inhibition rate. The gist of the method: as §1

The record followed here is publication PMC11233931, “Remodeling tumor‐associated macrophage for anti‐cancer effects by rational design of irreversible inhibition of mitogen‐activated protein kinase‐activated protein kinase 2” (MedComm, 2024).

SMILES strings stand for the structures.

T4 sequence (Q9BYT3 whole entry): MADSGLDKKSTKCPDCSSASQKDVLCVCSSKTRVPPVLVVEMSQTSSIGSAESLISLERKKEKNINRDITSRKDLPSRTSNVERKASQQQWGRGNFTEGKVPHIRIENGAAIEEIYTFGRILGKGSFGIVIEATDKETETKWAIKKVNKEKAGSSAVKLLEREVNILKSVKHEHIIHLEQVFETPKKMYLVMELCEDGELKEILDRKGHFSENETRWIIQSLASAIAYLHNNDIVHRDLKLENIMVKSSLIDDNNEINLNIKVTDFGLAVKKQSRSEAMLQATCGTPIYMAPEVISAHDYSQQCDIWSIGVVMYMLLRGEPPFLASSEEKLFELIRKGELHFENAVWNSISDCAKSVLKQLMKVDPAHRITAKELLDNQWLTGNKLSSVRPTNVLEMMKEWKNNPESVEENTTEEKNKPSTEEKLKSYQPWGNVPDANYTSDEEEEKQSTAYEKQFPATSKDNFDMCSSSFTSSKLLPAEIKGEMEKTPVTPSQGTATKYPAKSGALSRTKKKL
T5 sequence (P37023 22-503): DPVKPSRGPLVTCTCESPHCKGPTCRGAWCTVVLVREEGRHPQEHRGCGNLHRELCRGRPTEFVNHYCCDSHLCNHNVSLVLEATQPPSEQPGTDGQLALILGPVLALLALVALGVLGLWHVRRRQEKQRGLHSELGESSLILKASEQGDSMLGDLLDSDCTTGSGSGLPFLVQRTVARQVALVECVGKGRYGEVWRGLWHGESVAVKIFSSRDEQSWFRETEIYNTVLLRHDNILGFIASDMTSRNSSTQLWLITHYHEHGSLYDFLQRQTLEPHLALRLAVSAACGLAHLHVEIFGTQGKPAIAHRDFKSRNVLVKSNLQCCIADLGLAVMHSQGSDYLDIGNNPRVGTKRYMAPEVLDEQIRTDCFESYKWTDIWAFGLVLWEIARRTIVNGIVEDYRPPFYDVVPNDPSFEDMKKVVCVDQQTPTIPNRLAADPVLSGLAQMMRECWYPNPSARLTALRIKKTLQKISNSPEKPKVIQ
T1 sequence (Q13882 whole entry): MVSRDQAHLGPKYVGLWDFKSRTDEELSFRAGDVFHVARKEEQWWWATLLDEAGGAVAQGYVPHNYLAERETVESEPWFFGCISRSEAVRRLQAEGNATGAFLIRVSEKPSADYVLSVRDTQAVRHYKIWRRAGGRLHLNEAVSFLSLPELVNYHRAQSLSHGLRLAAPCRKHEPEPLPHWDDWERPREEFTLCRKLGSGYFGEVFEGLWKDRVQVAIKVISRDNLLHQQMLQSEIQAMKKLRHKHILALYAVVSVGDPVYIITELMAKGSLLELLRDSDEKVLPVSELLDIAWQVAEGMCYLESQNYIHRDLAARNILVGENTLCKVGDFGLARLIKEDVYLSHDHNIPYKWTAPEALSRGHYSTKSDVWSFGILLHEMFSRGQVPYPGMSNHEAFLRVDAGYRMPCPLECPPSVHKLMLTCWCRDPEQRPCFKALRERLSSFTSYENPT

Regarding `C=CC(=O)Nc1cc(-c2cc(-c3cc4c([nH]3)CCNC4=O)ccn2)ccc1OC(F)(F)F` [compound 11], the inhibition – broadly, the relative decrease from the control value, in per cent – at 0.01 µM in test [1] (10 nM) is 0%; in test [2] (10 nM) it was 1%; in test [3] (10 nM), -2%; in test [4] (10 nM) it was 8%; in test [5] (10 nM), -16%; in test [6] (10 nM), -5%. For the same compound, the inhibition at 0.01 µM in test [7] (10 nM) was -6%. Besides, the inhibition at 0.1 µM is -5% in test [1] (100 nM); -4% in test [2] (100 nM); -5% in test [3] (100 nM); 18% in test [4] (100 nM); -12% in test [5] (100 nM); -7% in test [6] (100 nM). For the same compound, the inhibition at 0.1 µM in test [7] (100 nM) was -2%. For the same compound, the inhibition at 1 µM in test [1] (1000 nM) is -7%; in test [2] (1000 nM), -5%; in test [3] (1000 nM), -2%; in test [4] (1000 nM) it was 64%; in test [5] (1000 nM), -9%; in test [6] (1000 nM) it was -19%. The inhibition at 1 µM in test [7] (1000 nM) is -3%.
